One data set has as its target T1, human QPCT (Homo sapiens, UniProt Q16769).
T1 construct: purchased Anaspec AS-72230
Description: Inhibition of human QPCT enzyme activity (SensoLyte Green Glutaminyl Cyclase Activity Assay Kit). It is filed as biochemical. As to conditions: fluorescence Ex/Em = 490 nm/520 nm. As to the method:
(§1) The inhibition of human QPCT/QPCTL enzyme activity by the compounds was assessed using SensoLyte® Green Glutaminyl Cyclase Activity Assay Kit.
(§2) The working solutions of the test compounds were serially 6-fold diluted from an initial concentration of 200 µM to 7 concentration points in total. In the 75 µL reaction system, the initial working concentration of the test compound was 13.3 µM, and the final concentration of DMSO was 0.3%. 20 µL of prepared QPCT enzyme solution, 5 µL of test compound, and 25 µL of QPCT enzyme substrate were successively added to each well of a 384-well plate. The mixture was shaken on a microplate shaker for 1 min, centrifuged at 400 g for 1 min, and incubated at 37 °C for 30 min. Then, 25 µL of QPCT developer was added to each well, and the mixture was sufficiently mixed using a shaker for 1 min, centrifuged at 400 g for 1 min, and incubated at 37 °C for another 60 min. After the incubation was completed, the fluorescence values were read using a microplate reader, with parameter settings as follows: Ex/Em = 490 nm/520 nm. […] Curves were plotted using GraphPad Prism 9 software with the compound concentration (nM) as the abscissa and the enzyme activity inhibition rate (%) as the ordinate. Four-parameter fitting was performed, and the IC50 values for the inhibition of the QPCT enzyme activity by the compounds were calculated.

In a further data set the target is T2, human QPCTL (Homo sapiens, UniProt Q9NXS2).
T2 construct: purchased Sino Biological NXS6-1
T2 sequence (Q9NXS2 whole entry): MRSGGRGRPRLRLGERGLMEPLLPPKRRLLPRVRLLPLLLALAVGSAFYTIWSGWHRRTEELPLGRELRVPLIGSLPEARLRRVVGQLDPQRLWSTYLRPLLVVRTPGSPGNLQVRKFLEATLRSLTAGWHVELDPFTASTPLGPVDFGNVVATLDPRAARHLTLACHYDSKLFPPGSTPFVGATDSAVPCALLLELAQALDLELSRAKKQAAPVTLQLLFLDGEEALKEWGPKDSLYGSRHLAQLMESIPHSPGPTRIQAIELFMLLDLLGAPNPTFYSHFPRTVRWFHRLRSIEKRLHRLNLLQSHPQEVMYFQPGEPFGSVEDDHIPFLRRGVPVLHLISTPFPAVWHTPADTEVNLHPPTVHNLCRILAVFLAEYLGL
Description: Inhibition of human QPCTL enzyme activity (adjusted SensoLyte Green Glutaminyl Cyclase Activity Assay Kit). The class given is biochemical. As to conditions: human QPCTL enzyme (Sino Biological). As to the method: as §1
as §2, with “0.5 mM QPCT enzyme substrate was diluted to 5 µM with a buffer at a ratio of 1:100; 50 µg/mL QPCT enzyme was diluted to 125 ng/mL with a buffer and placed on ice for later use; QPCT developer was diluted with a buffer at a ratio of 1:250 and placed on ice for later use (the QPCT enzyme substrate, the QPCT enzyme, the buffer, and the QPCT developer were all from the kit). The working” for “The working”
The SensoLyte® Green Glutaminyl Cyclase Activity Assay Kit was appropriately adjusted by replacing the QPCT enzyme in it with human QPCTL enzyme (Sino Biological, Cat. No. NXS6-1) (the concentration of the working solution was kept unchanged) for determining the IC50 values for the inhibition of human QPCTL enzyme activity by compounds. […]

The target in a further data set is T3, CYP2C9 (Homo sapiens, UniProt P11712).
T3 construct: 1 µL of 20 mg/mL liver microsome solution; from tissue; host or cells: liver microsomes
T3 sequence (P11712 whole entry): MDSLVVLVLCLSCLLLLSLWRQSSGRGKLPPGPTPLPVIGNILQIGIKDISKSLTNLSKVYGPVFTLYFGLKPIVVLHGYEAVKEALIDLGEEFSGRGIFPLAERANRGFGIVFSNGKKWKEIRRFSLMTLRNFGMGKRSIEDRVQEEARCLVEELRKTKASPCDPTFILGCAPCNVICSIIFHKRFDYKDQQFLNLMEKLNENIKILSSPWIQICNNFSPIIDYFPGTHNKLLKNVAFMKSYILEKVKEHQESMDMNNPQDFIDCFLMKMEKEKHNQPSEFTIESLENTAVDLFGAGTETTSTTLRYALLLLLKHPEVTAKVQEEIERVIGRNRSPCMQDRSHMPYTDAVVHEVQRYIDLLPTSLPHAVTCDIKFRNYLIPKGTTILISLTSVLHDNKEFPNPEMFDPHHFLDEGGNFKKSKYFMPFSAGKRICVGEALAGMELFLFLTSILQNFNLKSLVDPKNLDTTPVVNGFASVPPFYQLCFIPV
Description: Inhibition of CYP2C9 enzyme activity in liver microsomes. It is filed as in vitro ADME. To be noted: substrate diclofenac, 15 min. On the technique in general: Microsomes from liver hold many membrane-bound enzymes, among them those of drug oxidation.

The target in a further data set is T4, CYP2D6 (Homo sapiens, UniProt P10635).
T4 construct: 1 µL of 20 mg/mL liver microsome solution; from tissue; host or cells: liver microsomes
T4 sequence (P10635 whole entry): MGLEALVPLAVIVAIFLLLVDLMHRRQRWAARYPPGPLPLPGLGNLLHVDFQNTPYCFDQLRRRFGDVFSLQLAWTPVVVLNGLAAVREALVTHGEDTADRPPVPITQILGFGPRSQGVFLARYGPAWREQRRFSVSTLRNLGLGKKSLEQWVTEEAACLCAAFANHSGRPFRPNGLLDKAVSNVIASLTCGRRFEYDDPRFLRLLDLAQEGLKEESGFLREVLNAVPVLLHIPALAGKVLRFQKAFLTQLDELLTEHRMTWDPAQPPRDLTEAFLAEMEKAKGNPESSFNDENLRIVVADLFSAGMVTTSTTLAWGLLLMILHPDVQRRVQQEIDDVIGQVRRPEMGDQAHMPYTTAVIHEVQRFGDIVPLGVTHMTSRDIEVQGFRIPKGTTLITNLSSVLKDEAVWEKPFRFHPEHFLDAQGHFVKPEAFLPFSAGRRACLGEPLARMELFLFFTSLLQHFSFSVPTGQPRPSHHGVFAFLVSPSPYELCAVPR
Description: Inhibition of CYP2D6 enzyme activity in liver microsomes. The class given is in vitro ADME. To be noted: substrate dextromethorphan, 15 min.

Another data set addresses T5, CYP3A4 (Homo sapiens, UniProt P08684).
T5 construct: 1 µL of 20 mg/mL liver microsome solution; from tissue; host or cells: liver microsomes
Description: Inhibition of CYP3A4 enzyme activity in liver microsomes. It is filed as in vitro ADME. As to conditions: substrate midazolam, 15 min.

A short description of data set [1]: Metabolic stability in liver microsomes (human). The class given is in vitro ADME. As to conditions: pH 7.4; human liver microsomes 0.5 mg/mL, 1 µM compound, 1 mM NADPH; read-out: Half-life (t1/2, min) (human). As to the method: (§3) The experimental procedures were as follows: 1. […] 2. Preparation of reaction system The reaction system was prepared as follows:
(§4) 3. The reaction system was pre-incubated in a 37 °C water bath for 10 min. 20 µL of 10 mM NADPH solution (NADPH was dissolved by 100 mM phosphate-buffered saline) was added to the reaction system with a final concentration of NADPH being 1 mM. 20 µL phosphate-buffered saline was used instead of the NADPH solution to serve as the negative control. The negative control was used to exclude the effect of chemical stability of the compound itself. 4. The reaction was initiated by adding 2 µL of 100 µM compound of the present disclosure and verapamil, the positive control compound, to the reaction system with a final concentration of the compound being 1 µM. 5.
(§5) All data were calculated using Microsoft Excel software. The peak area was obtained by extracting an ion chromatogram.

Data set [2] can be described thus: Metabolic stability in liver microsomes (mouse). The class given is in vitro ADME. To be noted: pH 7.4; mouse liver microsomes 0.5 mg/mL, 1 µM compound, 1 mM NADPH; read-out: Half-life (t1/2, min) (mouse). As to the method:
as §3, §4, §5

T1 sequence (Q16769 29-361): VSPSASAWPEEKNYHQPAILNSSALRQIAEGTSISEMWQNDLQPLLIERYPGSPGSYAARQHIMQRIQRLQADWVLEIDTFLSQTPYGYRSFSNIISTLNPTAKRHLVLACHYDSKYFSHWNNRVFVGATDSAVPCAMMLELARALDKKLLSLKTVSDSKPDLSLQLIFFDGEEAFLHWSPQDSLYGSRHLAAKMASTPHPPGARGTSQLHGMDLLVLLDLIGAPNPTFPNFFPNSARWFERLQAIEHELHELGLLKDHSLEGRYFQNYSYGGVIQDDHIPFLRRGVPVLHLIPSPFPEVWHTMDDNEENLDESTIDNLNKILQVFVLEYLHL
T5 sequence (P08684 whole entry): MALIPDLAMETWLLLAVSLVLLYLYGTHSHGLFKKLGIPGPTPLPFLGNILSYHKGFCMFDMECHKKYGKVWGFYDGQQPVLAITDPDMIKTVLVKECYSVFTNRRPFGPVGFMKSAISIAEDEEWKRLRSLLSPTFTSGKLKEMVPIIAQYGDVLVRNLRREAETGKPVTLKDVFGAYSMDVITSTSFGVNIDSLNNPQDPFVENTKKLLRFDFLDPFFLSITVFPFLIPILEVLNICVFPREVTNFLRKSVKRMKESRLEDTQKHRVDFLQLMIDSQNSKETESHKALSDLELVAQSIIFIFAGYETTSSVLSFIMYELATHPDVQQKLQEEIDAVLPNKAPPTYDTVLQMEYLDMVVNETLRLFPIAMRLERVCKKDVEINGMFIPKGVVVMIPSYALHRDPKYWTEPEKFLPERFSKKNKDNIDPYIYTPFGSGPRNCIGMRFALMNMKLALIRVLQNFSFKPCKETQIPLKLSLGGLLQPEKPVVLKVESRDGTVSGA

Take `O=C1C[C@H](C23CC(F)(C2)C3)N1c1ccc2[nH]cnc2c1` [Compound 2]: the IC50 (usually the concentration that inhibits the measured activity by half) against human QPCT stood at 170 nM. Regarding `CCCOC12CC([C@H]3CC(=O)N3c3ccc4[nH]cnc4c3)(C1)C2` [Compound 3], the IC50 amounted to 52.4 nM on human QPCT and 6.5 nM on human QPCTL.

For `O=C1C[C@H](C23CC(c4ccc(F)cc4)(C2)C3)N1c1ccc2[nH]cnc2c1` [Compound 4], the IC50 was determined as 10.7 nM at human QPCT and 3.9 nM at human QPCTL.

`O=C1C[C@H](C23CC(c4ccncc4)(C2)C3)N1c1ccc2[nH]cnc2c1` [Compound 5] yielded an IC50 against human QPCT of 8.5 nM. On the same count and under the same terms, with `N#Cc1ccc(C23CC([C@H]4CC(=O)N4c4ccc5[nH]cnc5c4)(C2)C3)cc1` [Compound 6] the figure was 19.1 nM. Consider `O=C1C[C@H](C23CC(N4CCOCC4)(C2)C3)N1c1ccc2[nH]cnc2c1` [Compound 7], for which the IC50 was 36.8 nM against human QPCT; 25.1 nM at human QPCTL; > 50 µM at CYP2C9; > 50 µM against CYP2D6; > 50 µM at CYP3A4. Also, the figures for the half-life at 1 µM in data set [1] and in data set [2] were 316 min and 325 min, respectively. At human QPCT, `COC12CC([C@H]3CC(=O)N3c3ccc4[nH]cnc4c3)(C1)C2` [Compound 8] came in with an IC50 of 166 nM.

As to `CC12CC([C@H]3CC(=O)N3c3ccc4nc[nH]c4c3)(C1)C2` [Compound 9], the midpoint of inhibition against human QPCT, the IC50, lay at 37.3 nM. Take `O=C1C[C@H](C23CC(CF)(C2)C3)N1c1ccc2nc[nH]c2c1` [Compound 10]: on human QPCT, half-maximal inhibition (IC50) was put at 58.9 nM. In turn, `[2H][C@]1(C23CC(C2)C3)CC(=O)N1c1ccc2[nH]cnc2c1` [Compound 11] showed an IC50 against human QPCT of 42.5 nM. The same measure, in the same setting: as for `O=C1C[C@H](C23CC(Cl)(C2)C3)N1c1ccc2[nH]cnc2c1` [Compound 13], the figure is 73.2 nM.
